Literature values, collected in US20160311746A1, “METHOD OF PRODUCING ADIPIC ACID OR AT LEAST A RESULTANT PRODUCT THEREOF” (BASF SE, priority 2013, published 2016).

Conditions: at about 47° C.

solubility in water: about 1 g per 100 g of water
Compound: O=C(O)/C=C\C=C/C(=O)O [cis,cis-muconic acid]
